Experimental findings from BindingDB's records for doi:10.1021/jm021084k (2003) are described below.

The target of one assay is Histamine H3 receptor (Cavia porcellus, UniProt Q9JI35). Nature of the assay: Potency at histamine H3 receptor subtype, was tested on guinea pig right ileum.
A further assay deals with Histamine H1 receptor (Cavia porcellus, UniProt P31389). As to the kind of experiment: Potency at histamine H1 receptor subtype, was tested on guinea pig right ileum.
A further assay deals with Histamine H2 receptor (Cavia porcellus, UniProt P47747). As to the kind of experiment: Potency at histamine H2 receptor subtype, was tested on guinea pig right atrium.
Sequence of Histamine H2 receptor (P47747 whole entry): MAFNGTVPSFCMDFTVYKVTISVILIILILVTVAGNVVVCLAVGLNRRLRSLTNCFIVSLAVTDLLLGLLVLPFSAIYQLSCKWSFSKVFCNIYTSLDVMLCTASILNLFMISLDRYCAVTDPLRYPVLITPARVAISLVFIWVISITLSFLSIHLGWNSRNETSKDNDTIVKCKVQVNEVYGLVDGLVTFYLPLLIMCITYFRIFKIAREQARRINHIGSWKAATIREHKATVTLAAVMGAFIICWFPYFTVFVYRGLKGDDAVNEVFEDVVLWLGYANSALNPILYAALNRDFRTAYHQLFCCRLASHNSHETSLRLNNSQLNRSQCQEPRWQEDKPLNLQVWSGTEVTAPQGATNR

Sequence of Histamine H3 receptor (Q9JI35 whole entry): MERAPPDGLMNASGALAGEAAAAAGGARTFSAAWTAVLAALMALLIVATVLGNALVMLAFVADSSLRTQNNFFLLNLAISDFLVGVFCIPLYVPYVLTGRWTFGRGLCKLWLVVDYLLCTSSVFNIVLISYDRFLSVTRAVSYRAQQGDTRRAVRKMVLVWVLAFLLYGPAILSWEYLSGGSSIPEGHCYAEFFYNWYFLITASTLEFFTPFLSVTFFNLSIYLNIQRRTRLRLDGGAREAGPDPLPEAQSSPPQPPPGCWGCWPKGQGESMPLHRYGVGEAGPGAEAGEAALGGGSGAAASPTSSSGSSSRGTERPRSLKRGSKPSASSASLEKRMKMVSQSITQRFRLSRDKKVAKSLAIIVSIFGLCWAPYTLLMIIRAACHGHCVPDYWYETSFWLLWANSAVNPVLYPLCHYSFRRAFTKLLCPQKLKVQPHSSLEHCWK
Sequence of Histamine H1 receptor (P31389 whole entry): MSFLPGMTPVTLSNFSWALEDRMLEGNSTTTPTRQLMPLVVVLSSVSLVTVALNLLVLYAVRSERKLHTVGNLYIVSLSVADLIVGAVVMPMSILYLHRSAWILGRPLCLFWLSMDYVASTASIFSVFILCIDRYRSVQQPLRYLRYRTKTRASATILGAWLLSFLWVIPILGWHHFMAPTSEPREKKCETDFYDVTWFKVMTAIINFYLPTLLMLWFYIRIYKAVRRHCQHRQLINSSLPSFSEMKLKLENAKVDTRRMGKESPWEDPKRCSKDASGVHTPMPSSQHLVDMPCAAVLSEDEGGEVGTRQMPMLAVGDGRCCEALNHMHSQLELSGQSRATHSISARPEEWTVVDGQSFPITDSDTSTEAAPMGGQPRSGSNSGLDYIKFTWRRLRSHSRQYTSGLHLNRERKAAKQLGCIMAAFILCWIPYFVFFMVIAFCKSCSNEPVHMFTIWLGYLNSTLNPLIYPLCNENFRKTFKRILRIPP

`CC(N=O)c1ccc(OCc2ccc(CN3CCCCC3)cc2)cc1` (stereo not drawn) [1-[4-(4-Piperidin-1-ylmethyl-benzyloxy)-phenyl]-ethanone oxime]: the Kd was determined as 0.0851 µM at Histamine H3 receptor, 7.94 µM on Histamine H1 receptor and 14.1 µM on Histamine H2 receptor.
